The target in experiment [1] is T1, Gamma-secretase subunit PEN-2 (Homo sapiens, UniProt Q9NZ42). In words: Compound required for inhibition of gamma-secretase-mediated formation of Abeta1-42 polypeptide. Format: functional.
In experiment [2] the target is T1, Gamma-secretase subunit PEN-2. In words: Compound required for inhibition of gamma-secretase-mediated formation of Abeta1-40 polypeptide. The format is functional.
Experiment [3] has the same target. In words: Inhibitory concentration against gamma-secretase was determined.

T1 sequence (Q9NZ42 whole entry): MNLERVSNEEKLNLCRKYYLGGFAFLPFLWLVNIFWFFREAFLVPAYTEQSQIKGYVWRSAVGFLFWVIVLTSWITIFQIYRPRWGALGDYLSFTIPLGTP

As to `CC(C)C[C@H](NC(=O)[C@H](CN)C[C@@H](O)[C@H](Cc1ccccc1)NC(=O)OC(C)(C)C)C(=O)N[C@@H](Cc1ccccc1)C(N)=O`, the ED50 in experiment [1] and in experiment [2] was greater than 10 µM in each case.

With `CCC(C)[C@H](NC(=O)[C@@H](NC(=O)[C@@H](C[C@@H](O[Si](C)(C)C(C)(C)C)[C@H](C)NC(=O)OC(C)(C)C)[C@H](C)O[Si](C)(C)C(C)(C)C)C(C)C)C(N)=O` (stereo partly specified), the ED50 in experiment [1] and in experiment [2] was greater than 10 µM each time.

Turning to `CCC(C)C(C[C@@H](O[Si](C)(C)C(C)(C)C)[C@@H](NC(=O)OC(C)(C)C)C(C)C)C(=O)N[C@@H](C)C(=O)N[C@H](C(N)=O)C(C)O` (stereo partly specified), the ED50 in experiment [1] and in experiment [2] was greater than 10 µM throughout.

In general, IC50 refers to the concentration that gives 50% inhibition. A lower IC50 goes with inhibition by little substance. As to `CC(C)C[C@H](NC(=O)[C@H](Cc1ccccc1)C[C@@H](O)[C@H](Cc1ccccc1)NC(=O)OC(C)(C)C)C(=O)N[C@@H](Cc1ccccc1)C(N)=O`, the ED50 in experiment [1] worked out at 0.014 µM; in experiment [2], 0.036 µM. This compound also showed an IC50 in experiment [3] of 0.3 µM.

Take `CCC(C)[C@H](NC(=O)[C@@H](NC(=O)[C@H](C[C@@H](O[Si](C)(C)C(C)(C)C)[C@H](C)NC(=O)OC(C)(C)C)C(C)O[Si](C)(C)C(C)(C)C)C(C)C)C(N)=O` (stereo partly specified): the ED50 in experiment [1] and in experiment [2] was greater than 10 µM throughout.

Turning to `CCC(C)[C@H](NC(=O)[C@@H](NC(=O)[C@@H](C[C@@H](O[Si](C)(C)C(C)(C)C)[C@H](C)NC(=O)OC(C)(C)C)[C@@H](C)O[Si](C)(C)C(C)(C)C)C(C)C)C(N)=O` (stereo partly specified), the ED50 in experiment [1] and in experiment [2] was greater than 10 µM throughout.

As to `CC(NC(=O)[C@H](Cc1ccccc1)C[C@@H](O)[C@H](Cc1ccccc1)NC(=O)OC(C)(C)C)C(=O)N[C@H](C(N)=O)[C@H](C)O` (single isomer, unassigned), the figures for the ED50 in experiment [1] and in experiment [2] were 230 µM and 732 µM, respectively.

Regarding `CC(C)C[C@H](NC(=O)C(CC[C@H](Cc1ccccc1)NC(=O)OC(C)(C)C)Cc1ccccc1)C(=O)N[C@@H](Cc1ccccc1)C(N)=O` (stereo partly specified), the ED50 in experiment [1] and in experiment [2] was greater than 10 µM each time.

Consider `CC(C)C[C@H](NC(=O)/C(=C/C[C@H](Cc1ccccc1)NC(=O)OC(C)(C)C)Cc1ccccc1)C(=O)N[C@@H](Cc1ccccc1)C(N)=O`, for which the ED50 in experiment [1] and in experiment [2] was greater than 10 µM in each case.

`CC[C@H](C)[C@H](NC(=O)[C@@H](NC(=O)[C@H](Cc1ccccc1)C[C@@H](O)[C@H](Cc1ccccc1)NC(=O)OC(C)(C)C)C(C)C)C(N)=O`: the ED50 in experiment [1] is 35 µM; in experiment [2], 32 µM.

Values taken from ChEMBL document CHEMBL1136418, “Synthesis and gamma-secretase activity of APP substrate-based hydroxyethylene dipeptide isosteres” (Bioorg Med Chem Lett, 2003).
